Reference: paper PMC10525585, “Evaluation of the Antibacterial Effect of Aurone-Derived Triazoles on Staphylococcus aureus” (Antibiotics, 2023)
Several values for one entry are separate records, joined by “and”; a condition that tells them apart may be missing. Equal values may be shown once. Read-outs that look alike come from different tables or passages of the source.

What was measured:
[1] = tested on: methicillin-sensitive S. aureus ATCC 29213 (MSSA); test: microbe, parasite or virus in culture; conditions: Table S1; for IC50: read-out: IC50 MSSA
Procedure: (§1) MRSA strain ATCC 43300 and MSSA strain S. aureus ATCC 29213 were grown on Tryptic Soy Agar (TSA) plates. Before use, an isolated colony was transferred from the TSA plate into Tryptic Soy Broth (TSB) and incubated 18–24 h in a humidified incubator at 37 °C. To adjust for a standard concentration of bacteria, the turbidity of the culture was measured at 600 nm, and its optical density (OD600) adjusted to be in the range 0.08–0.12 which equates to a concentration of approximately 1 × 10^8 CFU/mL. This suspension was diluted 1:20 in TSB. […] MRSA strain S. aureus ATCC 43300 and MSSA strain S. aureus ATCC 29213 were used for all testing in this study.
(§2) The assay for anti-Staphylococcal activity of AT compounds was prepared in 96-well transparent, U-bottom plates. A series of 2-fold dilutions of AT concentrations was tested in triplicate, with each well containing 10 µL of prepared bacterium and 90 µL of AT mixture in CAMHB. […] Blank wells with only CAMHB, a negative control well with 10 µL of bacterium solution mixed into 90 µL CAMHB, a vehicle control well with bacteria mixed into 1% DMSO in CAMBH, and a positive cell death control with vancomycin (1 µL of stock 2 mg/mL solution in 89 µL CAMHB with 10 µL of bacteria) were included. The plate was incubated for 18–24 h at 37 °C in a humidified incubator. Before measurement, PrestoBlue^TM dye (Invitrogen, Carlsbad, CA, USA) was added (10 µL per well) and incubated for 1 h with aluminum foil covering the plate. A CLARIOstar® (BMG LABTECH, Cary, NC, USA) multi-mode plate reader was used to measure the fluorescence at wavelengths of 560 nm for excitation and 590 nm for emission. Inhibitory concentration (IC50) values were defined as half inhibitory concentration and were computed using GraphPad Prism version 9.1 software.

[2] = tested on: methicillin-resistant S. aureus ATCC 43300 (MRSA); test: Antibacterial assay (broth microdilution, PrestoBlue); type: cell-based, Staphylococcus aureus; conditions: for MRSA inhibition (100µM) / IC50: Table S1; for IC50: read-out: IC50 MRSA
Procedure: as §1, §2

[3] = tested on: HepG2 (ATCC HB-8065) cells; test: Cytotoxicity assay (PrestoBlue); type: cell-based, Human
HeLa (ATCC CCL-2) cells = test: Cytotoxicity assay (PrestoBlue)
Procedure: Human HeLa epithelial (ATCC CCL-2) and HepG2 liver epithelial (ATCC HB-8065) cell lines were used to determine toxicity of AT compounds for mammalian cells. The cells were grown in a complete culture medium of RPMI 1640 with 10% heat-inactivated fetal bovine serum (FBS) at 37 °C in 5% CO2 (95% room air) in a humidified incubator. Before use, attached cell monolayers, which had reached at least 90% confluency, were detached by trypsinization with trypsin-EDTA (0.25%) and resuspension in fresh complete culture media. For experiments, the stock concentration of 1 × 10^5 cells/mL (to achieve a final 1 × 10^4 cells/well concentration) was achieved by counting the trypsinized cells and adjusting to their final concentration for assays.
HeLa or HepG2 cells were pre-seeded into a 96-well transparent, flat bottom plate by adding a volume of 100 µL stock cell concentration (1 × 10^5 cells/mL) in complete culture media to each well. The plate was incubated overnight at 37 °C in a 5% CO2 (95% room air) humidified incubator. After the incubation and before mixing in the AT compounds, a 100 µL volume of fresh complete culture media was added to the pre-seeded wells. The 2-fold dilutions of AT compounds in triplicates were prepared on a separate 96-well plate. Once the dilution plate was prepared, dilutions were transferred into the pre-seeded plate to achieve the same concentrations of ATs as for the inhibition assay described above. The final inoculated plate was then returned to the 5% CO2 (95% room air) humidified incubator for an additional 24 h of incubation with the diluted ATs. Controls were blank wells containing only media, wells with cells and DMSO in complete culture media, and wells with cells and complete culture media only. Measurement of toxicity was analogous to the inhibition assay except that 20 µL of PrestoBlue^TM was used and the incubation was 3–6 h before reading with the plate-reader. Cytotoxicity concentration (CC50) was defined as the concentration where half of the cells remained viable and was computed using GraphPad Prism.

SMILES	MSSA inhibition (100µM) [1] [%]	MRSA inhibition (100µM) [2]	other results
N#Cc1ccc(-c2n[nH]nc2C(=O)c2ccccc2O)cc1 [AT100]	58.77	96.47% and > 96%	IC50 [2]: 38.8 µM; CC50 [3]: 70.7 µM; CC50 (HeLa (ATCC CCL-2) cells; read-out: CC50 HeLa, Table S1): 19.1 µM
N#Cc1ccccc1-c1n[nH]nc1C(=O)c1ccccc1O [AT102]	0	35.77%	
O=C(c1ccccc1O)c1n[nH]nc1-c1ccc([N+](=O)[O-])cc1 [AT103]	81.57	88.53%	IC50 [2]: 3.98 µM; CC50 [3]: 2.65 µM
O=C(c1ccccc1O)c1n[nH]nc1-c1cccc([N+](=O)[O-])c1 [AT104]		48.19%	
O=C(c1ccccc1O)c1n[nH]nc1-c1cccc(Cl)c1 [AT107]	50.24	56.47%	
O=C(c1ccccc1O)c1n[nH]nc1-c1ccccc1Cl [AT108]	30.63	8.46%	
O=C(c1ccccc1O)c1n[nH]nc1-c1ccc(I)cc1 [AT113]	85.79	43.81%	
O=C(c1ccccc1O)c1n[nH]nc1-c1ccc(O)cc1 [AT117]	0	19.39%	
N#Cc1ccc(-c2n[nH]nc2C(=O)c2cccc(Cl)c2O)cc1 [AT119]	64.36	46.21%	
N#Cc1ccc(-c2n[nH]nc2C(=O)c2ccc(Cl)cc2O)cc1 [AT120]	71.82	99.51%	IC50 [1]: 6.03 µM; IC50 [2]: 4.18 µM; CC50 [3]: 38.1 µM; CC50 (HeLa (ATCC CCL-2) cells): 17.2 µM
N#Cc1ccc(-c2n[nH]nc2C(=O)c2c(O)cccc2Cl)cc1 [AT122]	1.01	18.51%	
Cc1ccc(-c2n[nH]nc2C(=O)c2cccc(Cl)c2O)cc1 [AT123]	99.45	23.62%	IC50 [1]: 12.5 µM; IC50 [2]: 31.2 µM; CC50 [3]: 58.7 µM; CC50 (HeLa (ATCC CCL-2) cells; read-out: CC50 HeLa, Table S1): 14.4 µM
N#Cc1ccc(-c2n[nH]nc2C(=O)c2cccc(Br)c2O)cc1 [AT124]	43.36	32.16%	IC50 [2]: 13.4 µM; CC50 [3]: 3.85 µM
N#Cc1ccc(-c2n[nH]nc2C(=O)c2cc(F)ccc2O)cc1 [AT126]	64.72	75.06%	
Cc1cc(O)c(C(=O)c2n[nH]nc2-c2cccc([N+](=O)[O-])c2)cc1C [AT130]	58.75	43.97%	
Cc1ccc(O)c(C(=O)c2n[nH]nc2-c2cccc([N+](=O)[O-])c2)c1 [AT131]	21.31	0%	
Cc1cccc(C(=O)c2n[nH]nc2-c2cccc([N+](=O)[O-])c2)c1O [AT132]	83.03	57.99%	
Cc1ccc(-c2n[nH]nc2C(=O)c2cc(C)c(C)cc2O)cc1 [AT133]	88.47	58.84%	
O=C(c1ccccc1O)c1n[nH]nc1-c1ccsc1 [AT134]	10.83	0%	
O=C(c1ccccc1O)c1n[nH]nc1-c1cccs1 [AT135]	46.76	5.42%	decrease of anti-MRSA activity ([2]; compared with AT137 (no bromine on the thiophene ring)): over 15 fold
CC(=O)Nc1ccc(-c2n[nH]nc2C(=O)c2ccccc2O)cc1 [AT136]	0	0%	
